Data reported in patent US6376426B1, “Herbicidal 3-(heterocycl-1-yl)-uracils” (BASF Aktiengesellschaft, priority 1999, dated 2002).

What was measured:
Format in all cases: in vivo
Zea mays [1] = experiment: Pre-emergence herbicidal test, ZEAMX; conditions: PRE, 21 days after spraying
Procedure: (§1) To evaluate their herbicidal activity, compounds according to the invention are tested using a representative range of plants:
(§2) The pre-emergence tests involve spraying a liquid formulation of the compound onto the soil in which the seeds of the plant species mentioned above has recently been sown.
(§3) The soil used in the tests is a prepared horticultural loam. The formulations used in the tests are prepared from solutions of the test compounds in acetone containing 0.4% by weight of an alkylphenol/ethylene oxide condensate available under the trade mark TRITON X-155. […] In these tests untreated sown soil are used as controls.
(§4) The herbicidal effects of the test compounds are assessed visually twenty-one days after spraying the foliage and the soil and are recorded on a 0-9 scale. A rating 0 indicates growth as untreated control, a rating 9 indicates death. An increase of 1 unit on the linear scale approximates to a 10% increase in the level of effect.

Galium aparine [2] = experiment: Pre-emergence herbicidal test, GALAP; set-up: key to herbicidal effect (0-9 scale) GALAP / herbicidal rating GALAP: A rating 0 indicates growth as untreated control; a rating 9 indicates death; conditions: PRE, 21 days after spraying
Procedure: as §1, §2, §3, §4

Triticum aestivum [3] = experiment: Pre-emergence herbicidal test, TRZAW; set-up: key: A rating 0 indicates growth as untreated control; a rating 9 indicates death; conditions: 21 days after spraying
Procedure: as §1, §2, §3, §4

Galium aparine [4] = experiment: Post-emergence herbicidal test, GALAP; conditions: POST, 21 days after spraying
Procedure: as §1
(§5) […] After spraying, the plants are placed on greenhouse benches and are cared for in the usual manner, commensurate with conventional greenhouse practices.
as §4

Setaria viridis [5] = experiment: Post-emergence herbicidal test, SETVI; set-up: key to herbicidal effect (0-9 scale) SETVI / herbicidal rating SETVI: A rating 0 indicates growth as untreated control; a rating 9 indicates death; conditions: POST, 21 days after spraying
Procedure: as §1, §5, §4

Hordeum vulgare [6] = experiment: Post-emergence herbicidal test, HORVW; conditions: 21 days after spraying
Procedure: as §1
These acetone solutions are diluted with water and the resulting formulations applied at dosage levels equivalent to about 1000, 800, 400, 250 or 100 g/ha per hectare of test compound per pot. After spraying, the plants are placed on greenhouse benches and are cared for in the usual manner, commensurate with conventional greenhouse practices.
as §4

Matricaria inodora [7] = experiment: Post-emergence herbicidal test, MATIN; conditions: POST, 21 days after spraying
Procedure: as §1, §5, §4

Abutilon theophrasti [8] = experiment: Pre-emergence herbicidal test, ABUTH; conditions: PRE, 21 days after spraying
Procedure: as §1, §2, §3, §4

Hordeum vulgare [9] = experiment: Pre-emergence herbicidal test, HORVW; set-up: key: A rating 0 indicates growth as untreated control; a rating 9 indicates death; conditions: 21 days after spraying
Procedure: as §1, §2, §3, §4

Ipomoea hederacea [10] = experiment: Pre-emergence herbicidal test, IPOHE; conditions: 21 days after spraying
Procedure: as §1, §2, §3, §4

Glycine max [11] = experiment: Post-emergence herbicidal test, GLXMA; conditions: 21 days after spraying
Procedure: as §1, §5, §4

Echinochloa crus-galli [12] = experiment: Pre-emergence herbicidal test, ECHCG; conditions: 21 days after spraying
Procedure: as §1, §2, §3, §4

Setaria viridis [13] = experiment: Pre-emergence herbicidal test, SETVI; conditions: PRE, 21 days after spraying
Procedure: as §1, §2, §3, §4

Ipomoea hederacea [14] = experiment: Post-emergence herbicidal test, IPOHE; set-up: key to herbicidal effect (0-9 scale) IPOHE / herbicidal rating IPOHE: A rating 0 indicates growth as untreated control; a rating 9 indicates death; conditions: POST, 21 days after spraying
Procedure: as §1, §5, §4

Alopecurus myosuroides [15] = experiment: Post-emergence herbicidal test, ALOMY; conditions: 21 days after spraying
Procedure: as §1, §5, §4

Triticum aestivum [16] = experiment: Post-emergence herbicidal test, TRZAW; conditions: POST, 21 days after spraying
Procedure: as §1, §5, §4

Echinochloa crus-galli [17] = experiment: Post-emergence herbicidal test, ECHCG; conditions: 21 days after spraying
Procedure: as §1, §5, §4

Zea mays [18] = experiment: Post-emergence herbicidal test, ZEAMX; conditions: 21 days after spraying
Procedure: as §1, §5, §4

Matricaria inodora [19] = experiment: Pre-emergence herbicidal test, MATIN; conditions: PRE, 21 days after spraying
Procedure: as §1, §2, §3, §4

Glycine max [20] = experiment: Pre-emergence herbicidal test, GLXMA; set-up: key to herbicidal effect (0-9 scale) GLXMA / herbicidal rating GLXMA: A rating 0 indicates growth as untreated control; a rating 9 indicates death; conditions: PRE, 21 days after spraying
Procedure: as §1, §2, §3, §4

Alopecurus myosuroides [21] = experiment: Pre-emergence herbicidal test, ALOMY; conditions: PRE, 21 days after spraying
Procedure: as §1, §2, §3, §4

Stellaria media [22] = experiment: Pre-emergence herbicidal test, STEME; conditions: PRE, 21 days after spraying
Procedure: as §1, §2, §3, §4

Stellaria media [23] = experiment: Post-emergence herbicidal test, STEME; conditions: POST, 21 days after spraying
Procedure: as §1, §5, §4

Abutilon theophrasti [24] = experiment: Post-emergence herbicidal test, ABUTH; set-up: key to herbicidal effect (0-9 scale) ABUTH / herbicidal rating ABUTH: A rating 0 indicates growth as untreated control; a rating 9 indicates death; conditions: POST, 21 days after spraying
Procedure: as §1, §5, §4

Cn1c(C(F)(F)F)cc(=O)n(-n2ccc3ccc(Br)cc32)c1=O [Example 6]
herbicidal effect (0-9 scale) ZEAMX (Zea mays [1]; 100 g/ha): 2
herbicidal effect (0-9 scale) ZEAMX (Zea mays [1]; 400 g/ha): 4
herbicidal effect (0-9 scale) GALAP (Galium aparine [2]; 100 g/ha): 2
herbicidal effect (0-9 scale) GALAP (Galium aparine [2]; 400 g/ha): 9
herbicidal effect (0-9 scale) TRZAW (Triticum aestivum [3]; 100 g/ha): 0
herbicidal effect (0-9 scale) TRZAW (Triticum aestivum [3]; 400 g/ha): 0
herbicidal effect (0-9 scale) GALAP (Galium aparine [4]; 100 g/ha): 5
herbicidal effect (0-9 scale) GALAP (Galium aparine [4]; 400 g/ha): 8
herbicidal effect (0-9 scale) SETVI (Setaria viridis [5]; 100 g/ha): 7
herbicidal effect (0-9 scale) SETVI (Setaria viridis [5]; 400 g/ha): 9
herbicidal effect (0-9 scale) HORVW (Hordeum vulgare [6]; 100 g/ha): 3
herbicidal effect (0-9 scale) HORVW (Hordeum vulgare [6]; 400 g/ha): 3
herbicidal effect (0-9 scale) MATIN (Matricaria inodora [7]; 100 g/ha): 3
herbicidal effect (0-9 scale) MATIN (Matricaria inodora [7]; 400 g/ha): 5
herbicidal effect (0-9 scale) ABUTH (Abutilon theophrasti [8]; 100 g/ha): 6
herbicidal effect (0-9 scale) ABUTH (Abutilon theophrasti [8]; 400 g/ha): 8
herbicidal effect (0-9 scale) HORVW (Hordeum vulgare [9]; 100 g/ha): 0
herbicidal effect (0-9 scale) HORVW (Hordeum vulgare [9]; 400 g/ha): 1
herbicidal effect (0-9 scale) IPOHE (Ipomoea hederacea [10]; 100 g/ha): 1
herbicidal effect (0-9 scale) IPOHE (Ipomoea hederacea [10]; 400 g/ha): 2
herbicidal effect (0-9 scale) GLXMA (Glycine max [11]; 100 g/ha): 4
herbicidal effect (0-9 scale) GLXMA (Glycine max [11]; 400 g/ha): 8
herbicidal effect (0-9 scale) ECHCG (Echinochloa crus-galli [12]; 100 g/ha): 1
herbicidal effect (0-9 scale) ECHCG (Echinochloa crus-galli [12]; 400 g/ha): 5
herbicidal effect (0-9 scale) SETVI (Setaria viridis [13]; 100 g/ha): 5
herbicidal effect (0-9 scale) SETVI (Setaria viridis [13]; 400 g/ha): 8
herbicidal effect (0-9 scale) IPOHE (Ipomoea hederacea [14]; 100 g/ha): 8
herbicidal effect (0-9 scale) IPOHE (Ipomoea hederacea [14]; 400 g/ha): 9
herbicidal effect (0-9 scale) ALOMY (Alopecurus myosuroides [15]; 100 g/ha): 2
herbicidal effect (0-9 scale) ALOMY (Alopecurus myosuroides [15]; 400 g/ha): 4
herbicidal effect (0-9 scale) TRZAW (Triticum aestivum [16]; 100 g/ha): 2
herbicidal effect (0-9 scale) TRZAW (Triticum aestivum [16]; 400 g/ha): 3
herbicidal effect (0-9 scale) ECHCG (Echinochloa crus-galli [17]; 100 g/ha): 4
herbicidal effect (0-9 scale) ECHCG (Echinochloa crus-galli [17]; 400 g/ha): 8
herbicidal effect (0-9 scale) ZEAMX (Zea mays [18]; 100 g/ha): 2
herbicidal effect (0-9 scale) ZEAMX (Zea mays [18]; 400 g/ha): 3
herbicidal effect (0-9 scale) MATIN (Matricaria inodora [19]; 100 g/ha): 1
herbicidal effect (0-9 scale) MATIN (Matricaria inodora [19]; 400 g/ha): 5
herbicidal effect (0-9 scale) GLXMA (Glycine max [20]; 100 g/ha): 0
herbicidal effect (0-9 scale) GLXMA (Glycine max [20]; 400 g/ha): 0
herbicidal effect (0-9 scale) ALOMY (Alopecurus myosuroides [21]; 100 g/ha): 1
herbicidal effect (0-9 scale) ALOMY (Alopecurus myosuroides [21]; 400 g/ha): 3
herbicidal effect (0-9 scale) STEME (Stellaria media [22]; 100 g/ha): 1
herbicidal effect (0-9 scale) STEME (Stellaria media [22]; 400 g/ha): 4
herbicidal effect (0-9 scale) STEME (Stellaria media [23]; 100 g/ha): 5
herbicidal effect (0-9 scale) STEME (Stellaria media [23]; 400 g/ha): 8
herbicidal effect (0-9 scale) ABUTH (Abutilon theophrasti [24]; 100 g/ha): 9
herbicidal effect (0-9 scale) ABUTH (Abutilon theophrasti [24]; 400 g/ha): 9
